Key:
Test in all cases: Yeast growth assay, specificity profiling
Type in all cases: cell-based
Set-up in all cases: key: “−” indicates no growth restoration i.e. no activity against the particular kinase; “+”, “++”, and “+++” indicate activity detected by restoration of growth, classified into three categories of potency; “+”, “++”, and “+++” indicate activity detected by restoration of growth, classified into three categories of potency; “+”, “++”, and “+++” indicate activity detected by restoration of growth, classified into three categories of potency
Details in all cases: 7 concentrations between 0.2 and 100 μM
FGFR-1 = biological target: T1, FGFR-1 (Homo sapiens, UniProt P11362)
T1 construct: expressed in transfected cells; host or cells: yeast
T1 sequence (P11362 22-822): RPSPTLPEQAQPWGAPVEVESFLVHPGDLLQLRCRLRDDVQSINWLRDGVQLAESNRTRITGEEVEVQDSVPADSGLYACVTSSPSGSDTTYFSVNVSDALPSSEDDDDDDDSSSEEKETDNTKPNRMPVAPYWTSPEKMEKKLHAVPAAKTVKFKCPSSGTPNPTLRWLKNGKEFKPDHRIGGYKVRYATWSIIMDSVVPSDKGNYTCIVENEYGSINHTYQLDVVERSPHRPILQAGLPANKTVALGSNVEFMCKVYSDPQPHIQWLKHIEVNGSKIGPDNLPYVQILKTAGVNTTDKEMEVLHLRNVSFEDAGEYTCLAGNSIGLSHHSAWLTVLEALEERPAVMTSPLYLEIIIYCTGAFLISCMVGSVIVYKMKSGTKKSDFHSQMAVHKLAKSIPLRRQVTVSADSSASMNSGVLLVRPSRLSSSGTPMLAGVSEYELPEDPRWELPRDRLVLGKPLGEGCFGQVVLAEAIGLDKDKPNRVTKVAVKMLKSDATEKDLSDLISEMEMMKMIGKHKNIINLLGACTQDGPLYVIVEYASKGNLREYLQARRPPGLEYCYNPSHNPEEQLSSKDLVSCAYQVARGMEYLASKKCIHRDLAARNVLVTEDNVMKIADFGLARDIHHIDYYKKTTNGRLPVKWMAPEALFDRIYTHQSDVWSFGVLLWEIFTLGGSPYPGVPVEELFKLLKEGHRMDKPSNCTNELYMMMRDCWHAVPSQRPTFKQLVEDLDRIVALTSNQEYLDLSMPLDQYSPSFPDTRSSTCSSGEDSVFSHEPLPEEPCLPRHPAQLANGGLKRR
How it was run: (§1)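 Yeast carrying plasmids encoding the RTK were grown in glucose medium to repress expression, then diluted into galactose medium to induce the growth-inhibiting kinase. Compounds at 7 concentrations between 0.2 and 100 μM were scored for restoring growth, graded −/+/++/+++ by maximal growth restoration and the concentration reaching it.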

CSF-1R = biological target: T2, CSF-1R (Homo sapiens, UniProt P07333)
T2 construct: expressed in transfected cells; host or cells: yeast
T2 sequence (P07333 20-972): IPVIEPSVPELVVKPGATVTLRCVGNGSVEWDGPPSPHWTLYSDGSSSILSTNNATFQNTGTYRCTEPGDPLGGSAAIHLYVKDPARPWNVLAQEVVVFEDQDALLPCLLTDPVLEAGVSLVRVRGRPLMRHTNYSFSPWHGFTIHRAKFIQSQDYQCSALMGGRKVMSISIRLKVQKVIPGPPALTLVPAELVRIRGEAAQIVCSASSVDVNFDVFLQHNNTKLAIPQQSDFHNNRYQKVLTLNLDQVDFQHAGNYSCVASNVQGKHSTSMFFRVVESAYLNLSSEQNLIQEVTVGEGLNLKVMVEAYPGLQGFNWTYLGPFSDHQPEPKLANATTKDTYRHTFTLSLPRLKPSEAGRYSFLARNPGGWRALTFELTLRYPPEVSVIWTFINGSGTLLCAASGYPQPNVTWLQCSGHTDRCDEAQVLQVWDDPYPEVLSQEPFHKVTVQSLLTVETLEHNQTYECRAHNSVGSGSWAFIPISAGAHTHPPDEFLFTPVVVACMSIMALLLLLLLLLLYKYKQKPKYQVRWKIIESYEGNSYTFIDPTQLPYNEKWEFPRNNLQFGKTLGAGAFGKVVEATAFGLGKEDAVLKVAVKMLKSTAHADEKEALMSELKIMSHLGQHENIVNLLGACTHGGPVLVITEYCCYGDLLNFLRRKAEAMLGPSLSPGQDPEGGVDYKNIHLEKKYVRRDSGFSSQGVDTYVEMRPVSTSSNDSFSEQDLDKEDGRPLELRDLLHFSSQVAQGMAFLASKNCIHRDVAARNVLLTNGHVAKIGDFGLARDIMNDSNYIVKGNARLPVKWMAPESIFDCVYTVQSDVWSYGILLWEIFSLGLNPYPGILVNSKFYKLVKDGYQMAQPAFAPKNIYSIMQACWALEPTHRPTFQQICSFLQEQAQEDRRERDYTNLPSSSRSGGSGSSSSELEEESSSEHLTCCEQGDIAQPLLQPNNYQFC
How it was run: as §1

PDGFRa = biological target: T3, PDGFRa (Homo sapiens, UniProt P16234)
T3 construct: expressed in transfected cells; host or cells: yeast
How it was run: as §1

FLT3 = biological target: T4, FLT3 (Homo sapiens, UniProt P36888)
T4 construct: expressed in transfected cells; host or cells: yeast
T4 sequence (P36888 27-993): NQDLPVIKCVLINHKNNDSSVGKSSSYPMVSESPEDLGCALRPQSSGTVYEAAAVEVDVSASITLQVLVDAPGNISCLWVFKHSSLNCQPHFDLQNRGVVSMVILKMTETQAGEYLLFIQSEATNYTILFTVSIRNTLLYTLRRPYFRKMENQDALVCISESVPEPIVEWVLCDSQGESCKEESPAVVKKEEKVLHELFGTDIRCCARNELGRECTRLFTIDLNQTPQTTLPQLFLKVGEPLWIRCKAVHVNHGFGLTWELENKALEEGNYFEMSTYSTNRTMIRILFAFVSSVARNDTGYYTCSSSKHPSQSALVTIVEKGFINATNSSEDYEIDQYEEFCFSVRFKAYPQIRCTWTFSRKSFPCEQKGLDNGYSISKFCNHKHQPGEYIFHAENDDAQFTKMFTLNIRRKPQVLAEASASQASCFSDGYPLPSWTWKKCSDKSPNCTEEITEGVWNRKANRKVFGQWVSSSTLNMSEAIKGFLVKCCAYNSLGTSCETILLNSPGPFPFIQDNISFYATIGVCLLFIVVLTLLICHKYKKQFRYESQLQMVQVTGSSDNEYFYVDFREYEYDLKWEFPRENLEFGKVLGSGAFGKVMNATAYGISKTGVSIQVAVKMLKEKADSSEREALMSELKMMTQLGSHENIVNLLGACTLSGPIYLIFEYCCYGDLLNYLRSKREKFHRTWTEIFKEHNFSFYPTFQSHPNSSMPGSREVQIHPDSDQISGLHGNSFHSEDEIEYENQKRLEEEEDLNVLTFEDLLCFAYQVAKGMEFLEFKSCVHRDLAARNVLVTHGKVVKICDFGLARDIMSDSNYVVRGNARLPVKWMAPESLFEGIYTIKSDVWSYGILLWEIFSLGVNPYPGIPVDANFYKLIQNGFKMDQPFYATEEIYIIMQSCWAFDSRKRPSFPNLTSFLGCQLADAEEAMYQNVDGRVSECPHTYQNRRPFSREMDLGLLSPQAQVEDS
How it was run: as §1

FGFR-4 = biological target: T5, FGFR-4 (Homo sapiens, UniProt P22455)
T5 construct: expressed in transfected cells; host or cells: yeast
T5 sequence (P22455 22-802): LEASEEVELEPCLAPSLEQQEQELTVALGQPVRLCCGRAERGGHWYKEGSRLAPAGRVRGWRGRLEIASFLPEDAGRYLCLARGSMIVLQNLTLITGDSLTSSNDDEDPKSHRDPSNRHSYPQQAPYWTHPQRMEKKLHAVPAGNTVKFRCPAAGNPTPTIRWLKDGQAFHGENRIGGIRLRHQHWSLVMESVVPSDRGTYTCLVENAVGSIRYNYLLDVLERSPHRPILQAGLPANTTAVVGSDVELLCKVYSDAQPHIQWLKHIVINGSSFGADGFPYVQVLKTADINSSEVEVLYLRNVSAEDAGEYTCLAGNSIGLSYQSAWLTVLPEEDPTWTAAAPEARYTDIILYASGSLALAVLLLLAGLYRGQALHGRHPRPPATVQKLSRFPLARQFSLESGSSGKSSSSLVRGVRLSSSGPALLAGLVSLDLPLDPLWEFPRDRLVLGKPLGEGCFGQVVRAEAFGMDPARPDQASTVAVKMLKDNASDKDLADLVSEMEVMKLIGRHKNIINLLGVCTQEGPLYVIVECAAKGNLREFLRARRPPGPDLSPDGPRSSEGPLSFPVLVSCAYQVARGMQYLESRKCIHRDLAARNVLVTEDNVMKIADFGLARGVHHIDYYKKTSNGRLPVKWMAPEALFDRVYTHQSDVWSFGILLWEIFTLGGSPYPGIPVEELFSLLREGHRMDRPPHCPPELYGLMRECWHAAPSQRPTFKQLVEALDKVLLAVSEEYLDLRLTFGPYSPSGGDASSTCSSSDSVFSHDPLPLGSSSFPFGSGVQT
How it was run: as §1

FGFR-3 = biological target: T6, FGFR-3 (Homo sapiens, UniProt P22607)
T6 construct: expressed in transfected cells; host or cells: yeast
T6 sequence (P22607 23-806): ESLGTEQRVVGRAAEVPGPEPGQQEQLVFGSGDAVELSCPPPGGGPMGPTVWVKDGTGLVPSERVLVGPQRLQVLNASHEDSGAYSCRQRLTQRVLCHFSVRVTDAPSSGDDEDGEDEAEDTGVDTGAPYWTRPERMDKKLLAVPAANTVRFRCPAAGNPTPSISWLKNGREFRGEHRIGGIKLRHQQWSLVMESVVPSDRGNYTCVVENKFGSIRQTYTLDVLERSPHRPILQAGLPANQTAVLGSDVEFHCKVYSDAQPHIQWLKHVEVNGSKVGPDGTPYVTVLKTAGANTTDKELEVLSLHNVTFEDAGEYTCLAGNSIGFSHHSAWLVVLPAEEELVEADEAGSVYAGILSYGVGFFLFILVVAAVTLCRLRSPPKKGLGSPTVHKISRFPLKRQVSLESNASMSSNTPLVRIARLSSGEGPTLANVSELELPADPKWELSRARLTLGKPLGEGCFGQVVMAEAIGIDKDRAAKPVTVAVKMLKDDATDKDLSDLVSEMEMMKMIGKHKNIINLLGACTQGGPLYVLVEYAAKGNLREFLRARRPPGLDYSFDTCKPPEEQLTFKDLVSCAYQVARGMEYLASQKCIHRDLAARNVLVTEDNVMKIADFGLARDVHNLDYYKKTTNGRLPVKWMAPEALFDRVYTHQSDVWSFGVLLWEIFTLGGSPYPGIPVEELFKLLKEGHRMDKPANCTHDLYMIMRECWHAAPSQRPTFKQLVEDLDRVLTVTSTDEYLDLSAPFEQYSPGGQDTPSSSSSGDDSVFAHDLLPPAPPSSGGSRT
How it was run: as §1

KIT = biological target: T7, KIT (Homo sapiens, UniProt P10721)
T7 construct: expressed in transfected cells; host or cells: yeast
T7 sequence (P10721 26-976): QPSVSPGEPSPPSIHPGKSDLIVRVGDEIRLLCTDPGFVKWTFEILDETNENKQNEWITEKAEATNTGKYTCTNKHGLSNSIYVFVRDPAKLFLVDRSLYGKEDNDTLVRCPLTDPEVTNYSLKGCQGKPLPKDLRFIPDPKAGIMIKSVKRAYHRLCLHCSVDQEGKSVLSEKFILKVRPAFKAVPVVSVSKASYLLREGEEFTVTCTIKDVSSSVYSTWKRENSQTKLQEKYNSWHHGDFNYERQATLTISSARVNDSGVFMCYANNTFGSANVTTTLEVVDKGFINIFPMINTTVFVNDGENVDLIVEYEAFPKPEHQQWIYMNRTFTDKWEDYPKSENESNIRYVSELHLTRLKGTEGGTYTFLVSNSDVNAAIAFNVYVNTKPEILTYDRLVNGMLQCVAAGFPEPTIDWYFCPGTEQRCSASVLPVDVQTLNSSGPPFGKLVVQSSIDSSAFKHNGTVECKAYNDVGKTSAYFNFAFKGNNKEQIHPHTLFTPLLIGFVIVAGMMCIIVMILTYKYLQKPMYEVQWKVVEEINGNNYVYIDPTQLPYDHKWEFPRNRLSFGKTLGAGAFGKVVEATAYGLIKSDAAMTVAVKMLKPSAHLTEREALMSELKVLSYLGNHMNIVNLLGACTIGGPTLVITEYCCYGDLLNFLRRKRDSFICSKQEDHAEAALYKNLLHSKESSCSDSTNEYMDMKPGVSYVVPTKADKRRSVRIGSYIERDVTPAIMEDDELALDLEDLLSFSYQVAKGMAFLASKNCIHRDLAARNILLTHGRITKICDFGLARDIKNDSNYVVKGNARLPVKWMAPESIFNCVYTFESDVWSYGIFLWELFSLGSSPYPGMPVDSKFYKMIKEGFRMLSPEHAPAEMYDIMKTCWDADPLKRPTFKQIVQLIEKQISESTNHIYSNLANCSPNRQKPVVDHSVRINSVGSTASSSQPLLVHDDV
How it was run: as §1

Cc1nccn2c(Nc3cccc(Cl)c3)c(-c3ccccc3)nc12 [compound 3, (3-Chloro-phenyl)-(8-methyl-2-phenyl-imidazo[1,2-a]pyrazin-3-yl)-amine]
−: FGFR-1 growth restoration (FGFR-1) | CSF-1R growth restoration (CSF-1R) | PDGFRa growth restoration (PDGFRa) | FLT3 growth restoration (FLT3) | FGFR-4 growth restoration (FGFR-4) | FGFR-3 growth restoration (FGFR-3) | KIT growth restoration (KIT)

COc1cccc(-c2nc3cnccn3c2Nc2cccc(Cl)c2)c1 [compound 7, (3-Chloro-phenyl)-[2-(3-methoxy-phenyl)-imidazo[1,2-a]pyrazin-3-yl]-amine]
−: FGFR-1 growth restoration (FGFR-1) | CSF-1R growth restoration (CSF-1R) | PDGFRa growth restoration (PDGFRa) | FLT3 growth restoration (FLT3) | FGFR-4 growth restoration (FGFR-4) | FGFR-3 growth restoration (FGFR-3) | KIT growth restoration (KIT)

Brc1cccc(Nc2c(-c3ccccc3)nc3cnccn23)c1 [compound 14, (3-Bromo-phenyl)-(2-phenyl-imidazo[1,2-a]pyrazin-3-yl)-amine]
−: FGFR-1 growth restoration (FGFR-1) | CSF-1R growth restoration (CSF-1R) | PDGFRa growth restoration (PDGFRa) | FLT3 growth restoration (FLT3) | FGFR-4 growth restoration (FGFR-4) | FGFR-3 growth restoration (FGFR-3) | KIT growth restoration (KIT)

Clc1ccc(Nc2c(-c3ccccc3)nc3cnccn23)cc1 [compound 16, (4-Chloro-phenyl)-(2-phenyl-imidazo[1,2-a]pyrazin-3-yl)-amine]
−: FGFR-1 growth restoration (FGFR-1) | CSF-1R growth restoration (CSF-1R) | PDGFRa growth restoration (PDGFRa) | FLT3 growth restoration (FLT3) | FGFR-4 growth restoration (FGFR-4) | FGFR-3 growth restoration (FGFR-3) | KIT growth restoration (KIT)

c1ccc(Nc2c(-c3ccccc3)nc3cnccn23)cc1 [compound 23, Phenyl-(2-phenyl-imidazo[1,2-a]pyrazin-3-yl)-amine]
−: FGFR-1 growth restoration (FGFR-1) | CSF-1R growth restoration (CSF-1R) | PDGFRa growth restoration (PDGFRa) | FLT3 growth restoration (FLT3) | FGFR-4 growth restoration (FGFR-4) | FGFR-3 growth restoration (FGFR-3) | KIT growth restoration (KIT)

Cc1cccc(Nc2c(-c3ccccc3)nc3cnccn23)c1 [compound 34, (2-Phenyl-imidazo[1,2-a]pyrazin-3-yl)-m-tolyl-amine]
−: FGFR-1 growth restoration (FGFR-1) | CSF-1R growth restoration (CSF-1R) | PDGFRa growth restoration (PDGFRa) | FLT3 growth restoration (FLT3) | FGFR-4 growth restoration (FGFR-4) | FGFR-3 growth restoration (FGFR-3) | KIT growth restoration (KIT)

Clc1cccc(Nc2c(-c3ccccc3)nc3cnccn23)c1 [compound 35, (3-Chloro-phenyl)-(2-phenyl-imidazo[1,2-a]pyrazin-3-yl)-amine]
−: FGFR-1 growth restoration (FGFR-1) | CSF-1R growth restoration (CSF-1R) | PDGFRa growth restoration (PDGFRa) | FLT3 growth restoration (FLT3) | FGFR-4 growth restoration (FGFR-4) | FGFR-3 growth restoration (FGFR-3) | KIT growth restoration (KIT)

Cc1nccn2c(Nc3ccccc3)c(-c3ccccc3)nc12 [compound 39, (8-Methyl-2-phenyl-imidazo[1,2-a]pyrazin-3-yl)-phenyl-amine]
−: FGFR-1 growth restoration (FGFR-1) | CSF-1R growth restoration (CSF-1R) | PDGFRa growth restoration (PDGFRa) | FLT3 growth restoration (FLT3) | FGFR-4 growth restoration (FGFR-4) | FGFR-3 growth restoration (FGFR-3) | KIT growth restoration (KIT)

Cc1cccc(Nc2c(-c3ccccc3)nc3c(C)nccn23)c1 [compound 43, (8-Methyl-2-phenyl-imidazo[1,2-a]pyrazin-3-yl)-m-tolyl-amine]
−: FGFR-1 growth restoration (FGFR-1) | CSF-1R growth restoration (CSF-1R) | PDGFRa growth restoration (PDGFRa) | FLT3 growth restoration (FLT3) | FGFR-4 growth restoration (FGFR-4) | FGFR-3 growth restoration (FGFR-3) | KIT growth restoration (KIT)

Cc1nccn2c(Nc3cccc(F)c3)c(-c3ccccc3)nc12 [compound 44, (3-Fluoro-phenyl)-(8-methyl-2-phenyl-imidazo[1,2-a]pyrazin-3-yl)-amine]
−: FGFR-1 growth restoration (FGFR-1) | CSF-1R growth restoration (CSF-1R) | PDGFRa growth restoration (PDGFRa) | FLT3 growth restoration (FLT3) | FGFR-4 growth restoration (FGFR-4) | FGFR-3 growth restoration (FGFR-3) | KIT growth restoration (KIT)

Cc1nccn2c(Nc3ccc(F)c(F)c3)c(-c3ccccc3)nc12 [compound 45, (3,4-Difluoro-phenyl)-(8-methyl-2-phenyl-imidazo[1,2-a]pyrazin-3-yl)-amine]
−: FGFR-1 growth restoration (FGFR-1) | CSF-1R growth restoration (CSF-1R) | PDGFRa growth restoration (PDGFRa) | FLT3 growth restoration (FLT3) | FGFR-4 growth restoration (FGFR-4) | FGFR-3 growth restoration (FGFR-3) | KIT growth restoration (KIT)

— patent US20070149535A1, “Protein kinase inhibitors” (ONCALIS AG, priority 2004, published 2007)
